# Measured values as given in patent publication US10954222B2, “Benzothiophene compound, alternative autophagy-inducing agent and anticancer agent including the compound as active ingredient, and method for screening for compound having anticancer activity” (National University Corporation Tokyo Medical and Dental …, priority 2012, dated 2021).
# Like-named read-outs stand apart in the source and are kept apart here.
# How the values were obtained:
# [1] = test system: Lamp1-GFP/ATG5-KO MEFs; experiment: Evaluation of activity to induce alternative autophagy (fluorescent bright spots due to aggregation of Lamp1-GFP); type: cell-based, mouse
# Protocol: First, by using a retrovirus, a gene for expression of a Lamp1-GFP fusion protein (also referred to as “Lamp1-GFP”) was introduced into ATG5-deficient mouse embryonic fibroblasts (also referred to as “ATG5-KO MEFs”). Then, a cell with high expression of Lamp1-GFP was cloned and prepared as Lamp1-GFP/ATG5-KO MEFs.
# The ATG5-KO MEFs were prepared by introducing a gene for expression of SV40T antigen into MEFs established from an ATG5-deficient C57/B6J mouse at a fetal age of 14.5 days by an electroporation method using an Nucleofector system (manufactured by amaxa) for immortalization. In addition, the retrovirus was prepared by introducing an MSCV-Lamp1-GFP (zeocin resistant) vector into plat E cells, which were retrovirus packaging cells.
# To the Lamp1-GFP/ATG5-KO MEFs seeded at 1×10^4/96 wells on the preceding day, each of the test compounds was added at a final concentration of 50 μM, and the Lamp1-GFP/ATG5-KO MEFs were cultured at 37° C. under 10% CO2 for 5 hours.
# Then, for observation, Hoechst 33342 (manufactured by invitrogen) was added at a final concentration of 1 ng/ml to each culture liquid, followed by incubation for 5 minutes. Then, the culture liquid was replaced with 100 μl of HBSS. Subsequently, five visual fields per well were photographed at random with IN CELL ANALYZER 1000 (manufactured by GE Healthcare).
# Then, the thus obtained novel benzothiophene compounds (TMD-459 and TMD-460) were evaluated for the ability to induce alternative autophagy by the same method as that described in Example 1. Note that, in Example 10, each of the compounds was added to culture liquids at final concentrations of 10, 20, 30, 40, and 50 μM. In addition, compound #9 was also added as a reference example to culture liquids at the above-described concentrations. Then, 5 hours after the addition of each of these compounds, five visual fields per each well were photographed at random with IN CELL ANALYZER 1000, and the presence or absence of fluorescent bright spots due to the aggregation of Lamp1-GFP was visually determined.
# [2] = test system: fibroblasts (cancer cells) immortalized with SV40; experiment: Activity to induce cell death specific to cancer cells: cancer cells (CTB survival rate); type: cell-based; settings: 20 μM, FIGS. 7 and 8
# [3] = test system: p53-deficient cancer cells (53T); experiment: Alternative autophagy-inducing activity in tumor cell line (Lamp2 aggregation, fluorescence and electron microscope); type: cell-based, mouse; settings: 20 μM, six hours, FIGS. 3 to 6
# Protocol: In the same manner as in the above-described <Evaluation of Alternative Autophagy-Inducing Activity> using the Lamp1-GFP/ATG5-KO MEFs, each of the compounds #09 and #13 was added at a final concentration of 20 μM to a culture liquid of the tumor cell line (also referred to as “53T”) established from the tumor developed spontaneously in the p53 deficient C57/B6J mouse. […] Note that, in this evaluation, Lamp2 was used instead of Lamp1. FIGS. 3 to 6 show the obtained results.
# [4] = test system: 53T implanted in wild-type C57/B6J mice; experiment: Survival rate of cancer-bearing mice; type: in vivo, mouse; settings: 10 μM every other day 5 times; compared with etoposide at 10 μM, FIGS. 13 to 15
# [5] = test system: MEFs immortalized with SV40T antigen; settings: 24 hours, CTB
# [6] = test system: tumor cell line 53T implanted in wild-type C57/B6J mice; experiment: In vivo anticancer activity, tumor volume in cancer-bearing mice implanted with 53T; design: species or system mouse
# Protocol: A tumor cell line (also referred to as “53T”) established from a tumor developed spontaneously in a p53 deficient C57/B6J mouse was implanted at 4 sites in the ventral skin of each of wild-type C57/B6J mice at 3×10^5 cells per site. From the following day, the compounds were administered to the mice every other day five times in total. The concentration of each compound was 0.4 μmol/(50 μl DMSO+100 μl PBS)/mouse/administration. In addition, a negative control group to which only the same amount of DMSO was administered was prepared. Then, 21 days (3 weeks) after the implantation, the tumor diameters of the mice were measured, and the tumor volumes were calculated, and compared with that of the control group.
# The 53T was implanted at 4 sites in the ventral skin of each of wild-type C57/B6J mice at 3×10^5 cells per site. From the following day, 0 (DMSO alone), 5, 10, or 20 μM of each of compounds #09 and #13 was administered to six mice every other day five times in total. Then, 21 days (3 weeks) after the implantation, the tumor diameters of the mice were measured, and the tumor volumes were calculated. FIGS. 9 and 11 show the obtained results. Note that, in FIGS. 9 and 11, each point indicates the average volume of the tumors at the four sites in a mouse.
# In addition, in the same manner as described above, the 53T was implanted in mice, and, from the following day, each of compound #09 at a concentration of 10 μM and compound #13 at a concentration of 5 μM was administered to four cancer-bearing mice every other day five times in total. Then, 21 days (3 weeks) after the implantation, the tumor diameters of the mice were measured, and the tumor volumes were calculated. In addition, a negative control to which DMSO was administered was also prepared, and the tumor volume was calculated in the same manner. In addition, these experiments were conducted three times independently of each other. FIGS. 10 and 12 show the obtained results. Note that in FIGS. 10 and 12, each point indicates the average volume of the tumors at the four sites in a mouse.
# [7] = test system: MEFs immortalized with SV40T antigen; experiment: cells; settings: Mus musculus, 24 h, read-out: induced cell death of the MEFs immortalized with SV40T antigen
# [8] = test system: primary cultured fibroblasts (normal cells); experiment: Activity to induce cell death specific to cancer cells: normal cells (CTB survival rate); type: cell-based; settings: 20 μM, FIGS. 7 and 8
# Protocol: CTB measurement values were obtained in the same manner as in the above-described <Evaluation of In Vitro Anticancer Activity> by adding each of compounds #09 and #13 at a final concentration of 20 μM to culture liquids of primary cultured fibroblasts (normal cells) and fibroblasts (cancer cells) immortalized with SV40. On the basis of the obtained CTB measurement values, the cell survival rate was calculated over time. Note that the cell survival rate was defined as 1-cell death induction rate. FIGS. 7 and 8 show the obtained results.
# [9] = test system: mouse tumor cell line 53T; experiment: Evaluation of in vitro anticancer activity (Cell titer blue, cell death induction rate); type: cell-based; design: key: (CTB of negative control − CTB treated)/CTB of negative control; settings: 24 hours, CTB
# Protocol: First, the mouse tumor cell line 53T was seeded at 2×10^4/well on 96 well plates. Then, on the following day, each of compounds #09 and #13 dissolved in DMSO was added at a final concentration of 1, 5, 10, 20, or 50 μM. In addition, a negative control to which only DMSO was added was prepared. Subsequently, the cells were cultured at 37° C. under 10% CO2 for 24 hours. Then, by using Cell titer blue (CTB) (manufactured by Promega) according to the attached protocol, the amount of the fluorescence of each well of the cells 10 minutes after the addition of the CTB reagent was measured as a CTB measurement value of the cells brought into contact with compound #09 or #13. On the basis of such measurement values, the cell death induction rate of each of compounds #09 and #13 was calculated according to the following formula. Cell death induction rate=(CTB measurement value of negative control−CTB measurement value of cells to which compound was added)/CTB measurement value of negative control
compound,measurement,setting,value
"CCOC(=O)c1c(NC(C)=O)sc2c(OCCN(CC)CC)c(Br)ccc12 [Compound #09, Ethyl 2-Acetylamino-6-bromo-7-[2-(N,N-diethylamino)ethyloxy]benzo[b]thiophene-3-carboxylate]",alternative autophagy-inducing activity (FIG. 16),"[1]; Example 9, same method as Example 1",having alternative autophagy-inducing activity
same,"aggregation of Lamp1-GFP, visually determined","[1]; concentrations of 10 μM or higher (10 to 50 μM), 5 hours",aggregation of the Lamp1-GFP was observed in all the cells
same,cell death-inducing activity on cancer cells (cell survival rate over time),[2],exhibited remarkable cell death-inducing activity on the cancer cells
same,aggregation of Lamp2 and occurrence of autophagy,[3],aggregation of the lysosomal protein Lamp2 and occurrence of autophagy were observed
same,improvement effect on the survival rate of the cancer-bearing mice,[4],higher improvement effect on the survival rate of the cancer-bearing mice than etoposide
same,Cell death induction rate,[5]; 10 μM,0.7426
same,Cell death induction rate,[5]; 20 μM,0.887
same,Cell death induction rate,[5]; 30 μM,0.89
same,Cell death induction rate,[5]; 40 μM,0.8913
same,Cell death induction rate,[5]; 50 μM,0.8848
same,dose dependence of in vivo anticancer activity (FIG. 9),"[6]; 0, 5, 10, or 20 μM",dose-dependent activity
same,"in vivo anticancer activity (tumor volume vs control group, FIG. 2)","[6]; 0.4 μmol/mouse/administration, every other day five times, 21 days after implantation",selected as compounds having in vivo anticancer activity
same,"in vivo anticancer activity (tumor volume, FIGS. 9 to 12)","[6]; 5, 10, or 20 μM every other day five times, 21 days after implantation",exhibited in vivo anticancer activity
same,"anticancer activity (FIG. 17, tumor volumes in cancer-bearing mice)",[6]; Example 9,had anticancer activity
same,mortality at 20 µM,[7],≥ 80%
same,cell death of normal cells (cell survival rate over time),[8],hardly induced cell death of the normal cells
same,Cell death induction rate,[9]; 1 μM,0
same,Cell death induction rate,[9]; 5 μM,0.07741
same,Cell death induction rate,[9]; 10 μM,0.1725
same,Cell death induction rate,[9]; 20 μM,0.6305
same,Cell death induction rate,[9]; 50 μM,0.9456
